# Measurements: US4418077A, “Fluorinated amino-butyric acid and diaminobutane derivatives” (Merrell Toraude et Compagnie, priority 1980, dated 1983)
# What was measured:
# Type in all cases: in vivo
# [1] = system: GABA-T; assay: GABA-T activity in brain of mice after four daily i.p. doses; conditions: brain 24 hours after last dose
# Method: (§1) A group of 10 male albino CD1 mice from Charles Riner, France, is given an i.p. injection of the test compound in aqueous solution daily for four consecutive days. Half of the animals are killed by decapitation 24 hours after the last dose fo the test compound. The other half of the animals are observed for up to 12 days for toxicity (as indicated by weight loss and deaths). Control animals receive an injection of the vehicle only.
# (§2) The brains are removed from the dead mice and are divided into two portions by sagittal section. One half is used for the measurement of GABA-T activity while the other is used for measuring GABA content. The GABA-T activity is measured using known methods as described by M. Jung et al., J. Neurochem., 28, 717 (1977) and 29, 797 (1977), GABA content is measured by perchloric acid or trichloroacetic acid extracts using an amino acid analyzer equiped with a fluoresence detector.
# [2] = system: brain GABA; assay: GABA content of brain of mice after four daily i.p. doses; conditions: brain 24 hours after last dose
# Method: as §1, §2
# [3] = Toxicity in mice (weight loss and deaths), observed up to 12 days; conditions: mouse, in vivo, ip, daily dose 1 mg/kg for 4 days, observed up to 12 days, read-out: Mortality (After Treatment)
# Method: as §1
# [4] = system: mice; assay: as above; conditions: i.p.
# Method: as §1
# [5] = daily dose 2.5 mg/kg for 4 days
smiles,measurement,setting,value
"NC(CF)C(F)C(=O)O (stereo not drawn) [2,4-difluoro-3-amino-butyric acid, 2,4-DIFLUORO-3-AMINO-BUTYRIC ACID]",GABA-T Inhibition (%),[1]; daily dose 1 mg/kg for 4 days,50%
same,GABA-T Inhibition (%),[1]; [5],83%
same,GABA-T Inhibition (%),[1]; daily dose 5 mg/kg for 4 days,87%
same,GABA Elevation (%),[2]; daily dose 1 mg/kg for 4 days,150%
same,GABA Elevation (%),[2]; [5],225%
same,GABA Elevation (%),[2]; daily dose 5 mg/kg for 4 days,250%
same,mortality at 288 h,[3],0%
same,Weight Loss %,[4]; daily dose 1 mg/kg for 4 days,0%
same,Weight Loss %,[4]; [5],-5%
same,Mortality (After Treatment),"[4]; daily dose 2.5 mg/kg for 4 days, deaths by day 6",2/5
same,Weight Loss %,[4]; daily dose 5 mg/kg for 4 days,-25%
same,Mortality (After Treatment),"[4]; daily dose 5 mg/kg for 4 days, deaths by day 7",5/5
